In patent US9199862B2, “Method for adsorbing fluorocarboxylic acid having ether bond and method for collecting same” (DAIKIN INDUSTRIES, LTD., priority 2009, dated 2015):

Legend:
[1] = adsorption and desorption by heating the active carbon in a dryer at 99° C. (Example 3); type: physicochemical; conditions: Tables 3 and 4, 99° C. for 48 hours
Description: An active carbon (Specific surface area: 500-2,000 m^2/g) (0.1 g), to which 2,3,3,3-tetrafluoro-2-[1,1,2,3,3,3-hexafluoro-2-(trifluoromethoxy)propoxy]-propanoic acid was adsorbed until reaching the breakthrough point, was charged into a dryer and left at a temperature of 99° C. for 48 hours. The desorption amount was taken as the same as an adsorption amount in adsorption again after the desorption.

solubility in water = type: physicochemical; conditions: normal temperature
Source text: A fluorocarboxylic acid having an ether bond, for example, 2,3,3,3-tetrafluoro-2-[1,1,2,3,3,3-hexafluoro-2-(trifluoromethoxy)propoxy]-propanoic acid has a solubility in water of about 10% at normal temperature, which is about 50 times of the solubility of perfluorooctanoic acid (PFOA) in water. Therefore, the adsorption rate of general active carbon, for example, general-purpose active carbon for waste water which was conventionally used is 5% or less at normal temperature and pH 7.

[2] = normal temperature; cited from earlier work

In the case of `O=C(O)C(F)(OC(F)(F)C(F)(OC(F)(F)F)C(F)(F)F)C(F)(F)F` (stereo not drawn) [2,3,3,3-tetrafluoro-2-[1,1,2,3,3,3-hexafluoro-2-(trifluoromethoxy)propoxy]-propanoic acid], the “desorption compared with perfluorohexanoic acid” value [1] is listed as “higher desorption”, the “solubility in water relative to perfluorooctanoic acid (PFOA)” value (solubility in water) is listed as “about 50 times” and the solubility in water [2] is listed as “about 10%”.
